Assay: excess molar enthalpy (molar enthalpy of mixing); xn = mol fraction of the nth substance listed
Settings: 101.3 kPa, Liquid, Flow calorimetry

CCOC(=O)CC(C)=O [ethyl 3-oxobutanoate] + CCC(C)O
excess molar enthalpy [kJ/mol]
Settings | 298.15 K | 313.15 K | 328.15 K | 338.15 K | 348.15 K
x1 = 0.1002 | 0.98 | 1.13 | 1.2 | 1.23 | 1.23
x1 = 0.1997 | – | 1.76 | 1.94 | 1.97 | 1.98
x1 = 0.2008 | 1.52 | – | – | – | –
x1 = 0.2998 | – | 2.16 | 2.38 | 2.44 | 2.44
x1 = 0.3009 | 1.84 | – | – | – | –
x1 = 0.3999 | – | 2.38 | 2.61 | 2.67 | 2.67
x1 = 0.4011 | 2.02 | – | – | – | –
x1 = 0.45 | – | 2.44 | 2.64 | 2.7 | 2.71
x1 = 0.4512 | 2.06 | – | – | – | –
x1 = 0.5004 | – | 2.44 | 2.63 | 2.68 | 2.69
x1 = 0.5017 | 2.08 | – | – | – | –
x1 = 0.5499 | – | 2.41 | 2.58 | 2.61 | 2.62
x1 = 0.5512 | 2.06 | – | – | – | –
x1 = 0.5995 | – | 2.32 | 2.48 | 2.5 | 2.51
x1 = 0.6009 | 2.01 | – | – | – | –
x1 = 0.6493 | – | 2.21 | 2.33 | 2.33 | 2.34
x1 = 0.6507 | 1.93 | – | – | – | –
x1 = 0.7007 | 1.8 | 2.03 | 2.12 | 2.12 | 2.12
x1 = 0.8005 | 1.42 | 1.55 | 1.59 | 1.59 | 1.6
x1 = 0.8999 | 0.805 | 0.872 | 0.882 | 0.885 | 0.889

CCOC(=O)CC(C)=O [ethyl 3-oxobutanoate] + CCCCCO
excess molar enthalpy [kJ/mol]
Settings | 298.15 K | 313.15 K | 328.15 K | 338.15 K | 348.15 K
x1 = 0.0998 | 0.913 | 1.05 | 1.12 | 1.18 | 1.18
x1 = 0.1996 | 1.38 | 1.67 | 1.85 | 1.92 | 1.93
x1 = 0.3006 | 1.71 | 2.05 | 2.3 | 2.39 | 2.39
x1 = 0.3505 | 1.81 | 2.18 | 2.46 | 2.54 | 2.54
x1 = 0.4001 | 1.88 | 2.27 | 2.54 | 2.63 | 2.64
x1 = 0.4504 | 1.93 | 2.32 | 2.6 | 2.68 | 2.69
x1 = 0.5003 | 1.95 | 2.33 | 2.6 | 2.68 | 2.69
x1 = 0.5498 | 1.94 | 2.31 | 2.56 | 2.63 | 2.64
x1 = 0.6 | 1.9 | 2.26 | 2.49 | 2.54 | 2.55
x1 = 0.6497 | 1.84 | 2.16 | 2.35 | 2.4 | 2.4
x1 = 0.7002 | 1.74 | 2.02 | 2.18 | 2.2 | 2.21
x1 = 0.7995 | 1.43 | 1.59 | 1.67 | 1.67 | 1.67
x1 = 0.9004 | 0.851 | 0.898 | 0.928 | 0.93 | 0.933

CCOC(=O)CC(C)=O [ethyl 3-oxobutanoate] + CCCCO
excess molar enthalpy [kJ/mol]
Settings | 298.15 K | 313.15 K | 328.15 K | 338.15 K | 348.15 K
x1 = 0.1003 | 0.913 | 1 | 1.12 | 1.14 | 1.16
x1 = 0.2002 | 1.41 | 1.56 | 1.81 | 1.86 | 1.9
x1 = 0.3 | 1.71 | 1.94 | 2.25 | 2.31 | 2.35
x1 = 0.3502 | 1.81 | 2.07 | 2.38 | 2.45 | 2.49
x1 = 0.3999 | 1.88 | 2.15 | 2.47 | 2.53 | 2.58
x1 = 0.45 | 1.92 | 2.22 | 2.51 | 2.58 | 2.61
x1 = 0.5005 | 1.94 | 2.22 | 2.51 | 2.56 | 2.59
x1 = 0.5501 | 1.92 | 2.19 | 2.47 | 2.51 | 2.53
x1 = 0.5999 | 1.88 | 2.12 | 2.37 | 2.42 | 2.42
x1 = 0.6499 | 1.8 | 2.02 | 2.25 | 2.27 | 2.27
x1 = 0.7 | 1.69 | 1.86 | 2.06 | 2.08 | 2.08
x1 = 0.8005 | 1.34 | 1.42 | 1.55 | 1.55 | 1.56
x1 = 0.9007 | 0.767 | 0.799 | 0.841 | 0.842 | 0.847

CCOC(=O)CC(C)=O [ethyl 3-oxobutanoate] + CCOC(C)=O
excess molar enthalpy [kJ/mol]
Settings | 298.15 K | 313.15 K | 328.15 K | 338.15 K | 348.15 K
x1 = 0.1005 | 0.025 | 0.025 | 0.021 | 0.019 | 0.017
x1 = 0.1995 | 0.041 | 0.042 | 0.035 | 0.033 | 0.029
x1 = 0.2996 | 0.052 | 0.053 | 0.044 | 0.041 | 0.036
x1 = 0.3495 | 0.054 | 0.057 | 0.047 | 0.044 | 0.039
x1 = 0.3995 | 0.056 | 0.059 | 0.048 | 0.046 | 0.041
x1 = 0.4496 | 0.057 | 0.061 | 0.049 | 0.047 | 0.042
x1 = 0.4998 | 0.056 | 0.061 | 0.048 | 0.046 | 0.042
x1 = 0.55 | 0.055 | 0.06 | 0.047 | 0.045 | 0.041
x1 = 0.6001 | 0.052 | 0.058 | 0.044 | 0.043 | 0.039
x1 = 0.6502 | 0.049 | 0.056 | 0.041 | 0.041 | 0.038
x1 = 0.7001 | 0.046 | 0.052 | 0.037 | 0.037 | 0.035
x1 = 0.7994 | 0.035 | 0.042 | 0.027 | 0.029 | 0.027
x1 = 0.9004 | 0.019 | 0.028 | 0.018 | 0.017 | 0.017

CCOC(=O)CC(C)=O [ethyl 3-oxobutanoate] + O
excess molar enthalpy [kJ/mol]
Settings | 298.15 K | 313.15 K | 328.15 K | 338.15 K | 348.15 K
x1 = 0.1502 | 0.175 | 0.276 | 0.386 | 0.472 | 0.558
x1 = 0.2994 | 0.428 | 0.597 | 0.783 | 0.929 | 1.09
x1 = 0.4491 | 0.684 | 0.92 | 1.19 | 1.4 | 1.62
x1 = 0.6014 | 0.923 | 1.23 | 1.57 | 1.82 | 1.93
x1 = 0.6499 | – | – | – | 1.79 | 1.89
x1 = 0.7001 | 1.08 | 1.4 | 1.58 | 1.7 | 1.79
x1 = 0.7514 | 1.13 | 1.32 | 1.47 | 1.56 | 1.61
x1 = 0.797 | – | – | – | 1.38 | 1.41
x1 = 0.8474 | 0.87 | 0.998 | 1.07 | – | –
x1 = 0.9034 | 0.6 | 0.696 | 0.736 | 0.778 | 0.786
x1 = 0.9496 | 0.32 | 0.385 | 0.39 | – | –

— the NIST ThermoML archive (doi:10.1021/je800889y)
